According to patent US6461997B1, “Triazole sulfones having herbicidal activity” (Monsanto Technology LLC, priority 1999, dated 2002):

Tested on: PANDI (fall panicum)
Assay: Pre-emergence herbicidal activity, warm season
Type: in vivo, Panicum dichotomiflorum
Settings: GR80 = lowest tested rate (300, 100, 30, 10 g/ha) with 80% or greater inhibition; approx. 14 days after treating; 30/21° C.
Summary of the method: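 Seeds sown in sterilised fertilised topsoil received surface-applied compound in 50:50 acetone/water, typically at 300, 100, 30 and 10 g/ha, then greenhouse-grown at 30/21° C (warm-season species) or 18/13° C (cool-season species). Percent inhibition versus untreated plants was scored at about 14 days, giving GR80; an asterisk marks activity short of 80% at the top rate.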

Structure (SMILES)	Pre-emergence activity (GR80) PANDI
C=CCC(F)(F)S(=O)(=O)c1ncn(C(=O)N(CC)CC)n1 [Example 17, 1-(N,N-diethylcarbamoyl)-3-[(1,1-difluoro-3-butenyl)sulfonyl]-1,2,4-triazole]	100 g/ha

Tested on: BROTE (downy brome)
Assay: Post-emergence herbicidal activity, cool season
Type: in vivo, Bromus tectorum
Settings: abraded plants sprayed at 300, 100, 30 and 10 g/ha; about 14 days after treatment
Summary of the method: (§1)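 GR80 values derive from percent growth inhibition scored approximately 14 days post-spray against abraded, unsprayed controls under an 18/13 °C regime. Foliar application to sandblast-abraded plants used rates of 300, 100, 30 and 10 g/ha in 50:50 acetone/water at 3,100 l/ha.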

Structure (SMILES)	Post-emergence activity GR80, BROTE
C=CCC(F)(F)S(=O)(=O)c1ncn(C(=O)N(CC)CC)n1 [Example 17, 1-(N,N-diethylcarbamoyl)-3-[(1,1-difluoro-3-butenyl)sulfonyl]-1,2,4-triazole]	[empty]

Tested on: BROTE (downy brome)
Assay: Pre-plant incorporated (PPI) herbicidal activity, cool season
Type: in vivo, Bromus tectorum
Settings: Bromus tectorum; weed, PPI application, 10 g/ha; read-out: Percent inhibition BROTE
Method: (§2) In another set of tests, the pre-plant incorporated (PPI) activity of compounds of this invention was evaluated on the same species as for the pre-emergence tests described above. In the PPI tests the following procedure, designed to simulate PPI application, was used.
(§3) A pre-prepared topsoil mixture (described above) was placed in a pot and compacted to a depth of 1.0 to 1.25 cm from the top of the pot. Seeds of each of several monocotyledonous and dicotyledonous annual plant species were placed on top of the soil. A sufficient quantity of soil to cover the seeds and level fill the pot was weighed into an open container. A known amount of the test compound was dissolved or suspended in an organic solvent and applied by spraying to this cover soil. The cover soil was thoroughly mixed to distribute the test compound throughout the cover soil, and was then applied as a cover layer over the seeds. Untreated soil was used as a cover layer for control pots. After treatment the plants were placed in a greenhouse where they received 0.64 cm of overhead irrigation. All subsequent watering consisted of a light overhead mist and/or subirrigation as needed for germination and growth. Tables 9 and 10 below relate to warm season plant species which were placed after pre-emergence treatment in a greenhouse with a 30/21° C. day/night temperature regime. Tables 11 and 12 below relates to cool season plant species placed after pre-emergence treatment in a greenhouse or growth chamber with an 18/13° C. day/night temperature regime. Only the compounds of Examples 1, 6, 8, 11, 13 and 15-20 were included in PPI tests.
(§4) Approximately 14 days after planting and treating, the plants were observed and herbicidal efficacy recorded as percent inhibition by comparison with untreated plants.

Structure (SMILES)	inhibition at 10 g/ha
C=CCC(F)(F)S(=O)(=O)c1ncn(C(=O)N(CC)CC)n1 [Example 17, 1-(N,N-diethylcarbamoyl)-3-[(1,1-difluoro-3-butenyl)sulfonyl]-1,2,4-triazole]	0%

Same assay, conditions: Bromus tectorum; weed, PPI application, 30 g/ha; read-out: Percent inhibition BROTE

Structure (SMILES)	inhibition at 30 g/ha
C=CCC(F)(F)S(=O)(=O)c1ncn(C(=O)N(CC)CC)n1 [Example 17, 1-(N,N-diethylcarbamoyl)-3-[(1,1-difluoro-3-butenyl)sulfonyl]-1,2,4-triazole]	0%

Same assay, conditions: Bromus tectorum; weed, PPI application, 100 g/ha; read-out: Percent inhibition BROTE

Structure (SMILES)	inhibition at 100 g/ha
C=CCC(F)(F)S(=O)(=O)c1ncn(C(=O)N(CC)CC)n1 [Example 17, 1-(N,N-diethylcarbamoyl)-3-[(1,1-difluoro-3-butenyl)sulfonyl]-1,2,4-triazole]	20%

Same assay, conditions: Bromus tectorum; weed, PPI application, 300 g/ha; read-out: Percent inhibition BROTE

Structure (SMILES)	inhibition at 300 g/ha
C=CCC(F)(F)S(=O)(=O)c1ncn(C(=O)N(CC)CC)n1 [Example 17, 1-(N,N-diethylcarbamoyl)-3-[(1,1-difluoro-3-butenyl)sulfonyl]-1,2,4-triazole]	30%

Same assay, conditions: Bromus tectorum; weed, PPI application, 900 g/ha; read-out: Percent inhibition BROTE

Structure (SMILES)	inhibition at 900 g/ha
C=CCC(F)(F)S(=O)(=O)c1ncn(C(=O)N(CC)CC)n1 [Example 17, 1-(N,N-diethylcarbamoyl)-3-[(1,1-difluoro-3-butenyl)sulfonyl]-1,2,4-triazole]	95%

Same assay, conditions: pre-plant incorporated; lowest tested rate with 80% or greater inhibition; about 14 days

Structure (SMILES)	PPI activity GR80, BROTE
C=CCC(F)(F)S(=O)(=O)c1ncn(C(=O)N(CC)CC)n1 [Example 17, 1-(N,N-diethylcarbamoyl)-3-[(1,1-difluoro-3-butenyl)sulfonyl]-1,2,4-triazole]	100 g/ha

Tested on: STEME (common chickweed)
Assay: as above
Type: in vivo, Stellaria media
Settings: pre-plant incorporated; lowest tested rate with 80% or greater inhibition; about 14 days
Method: as §2, §3, §4

Structure (SMILES)	PPI activity GR80, STEME
C=CCC(F)(F)S(=O)(=O)c1ncn(C(=O)N(CC)CC)n1 [Example 17, 1-(N,N-diethylcarbamoyl)-3-[(1,1-difluoro-3-butenyl)sulfonyl]-1,2,4-triazole]	10 g/ha

Tested on: ALOMY (blackgrass)
Assay: Post-emergence herbicidal activity, cool season
Type: in vivo, Alopecurus myosuroides
Settings: abraded plants sprayed at 300, 100, 30 and 10 g/ha; about 14 days after treatment
Summary of the method: as §1

Structure (SMILES)	Post-emergence activity GR80, ALOMY
C=CCC(F)(F)S(=O)(=O)c1ncn(C(=O)N(CC)CC)n1 [Example 17, 1-(N,N-diethylcarbamoyl)-3-[(1,1-difluoro-3-butenyl)sulfonyl]-1,2,4-triazole]	[empty]

Tested on: SETFA (giant foxtail)
Assay: Pre-plant incorporated (PPI) herbicidal activity, warm season
Type: in vivo, Setaria faberi
Settings: Setaria faberi; PPI application, 10 g/ha; read-out: Percent inhibition SETFA
Method: as §2, §3, §4

Structure (SMILES)	inhibition at 10 g/ha
C=CCC(F)(F)S(=O)(=O)c1ncn(C(=O)N(CC)CC)n1 [Example 17, 1-(N,N-diethylcarbamoyl)-3-[(1,1-difluoro-3-butenyl)sulfonyl]-1,2,4-triazole]	100%

Same assay, conditions: Setaria faberi; PPI application, 30 g/ha; read-out: Percent inhibition SETFA

Structure (SMILES)	inhibition at 30 g/ha
C=CCC(F)(F)S(=O)(=O)c1ncn(C(=O)N(CC)CC)n1 [Example 17, 1-(N,N-diethylcarbamoyl)-3-[(1,1-difluoro-3-butenyl)sulfonyl]-1,2,4-triazole]	100%

Same assay, conditions: Setaria faberi; PPI application, 100 g/ha; read-out: Percent inhibition SETFA

Structure (SMILES)	inhibition at 100 g/ha
C=CCC(F)(F)S(=O)(=O)c1ncn(C(=O)N(CC)CC)n1 [Example 17, 1-(N,N-diethylcarbamoyl)-3-[(1,1-difluoro-3-butenyl)sulfonyl]-1,2,4-triazole]	100%

Same assay, conditions: Setaria faberi; PPI application, 300 g/ha; read-out: Percent inhibition SETFA

Structure (SMILES)	inhibition at 300 g/ha
C=CCC(F)(F)S(=O)(=O)c1ncn(C(=O)N(CC)CC)n1 [Example 17, 1-(N,N-diethylcarbamoyl)-3-[(1,1-difluoro-3-butenyl)sulfonyl]-1,2,4-triazole]	100%

Same assay, conditions: Setaria faberi; PPI application, 900 g/ha; read-out: Percent inhibition SETFA

Structure (SMILES)	inhibition at 900 g/ha
C=CCC(F)(F)S(=O)(=O)c1ncn(C(=O)N(CC)CC)n1 [Example 17, 1-(N,N-diethylcarbamoyl)-3-[(1,1-difluoro-3-butenyl)sulfonyl]-1,2,4-triazole]	100%

Same assay, conditions: pre-plant incorporated; lowest tested rate with 80% or greater inhibition; about 14 days

Structure (SMILES)	PPI activity GR80, SETFA
C=CCC(F)(F)S(=O)(=O)c1ncn(C(=O)N(CC)CC)n1 [Example 17, 1-(N,N-diethylcarbamoyl)-3-[(1,1-difluoro-3-butenyl)sulfonyl]-1,2,4-triazole]	10 g/ha

Tested on: SETVI (green foxtail)
Assay: Pre-plant incorporated (PPI) herbicidal activity, cool season
Type: in vivo, Setaria viridis
Settings: Setaria viridis; weed, PPI application, 10 g/ha; read-out: Percent inhibition SETVI
Method: as §2, §3, §4

Structure (SMILES)	inhibition at 10 g/ha
C=CCC(F)(F)S(=O)(=O)c1ncn(C(=O)N(CC)CC)n1 [Example 17, 1-(N,N-diethylcarbamoyl)-3-[(1,1-difluoro-3-butenyl)sulfonyl]-1,2,4-triazole]	40%

Same assay, conditions: Setaria viridis; weed, PPI application, 30 g/ha; read-out: Percent inhibition SETVI

Structure (SMILES)	inhibition at 30 g/ha
C=CCC(F)(F)S(=O)(=O)c1ncn(C(=O)N(CC)CC)n1 [Example 17, 1-(N,N-diethylcarbamoyl)-3-[(1,1-difluoro-3-butenyl)sulfonyl]-1,2,4-triazole]	70%

Same assay, conditions: Setaria viridis; weed, PPI application, 100 g/ha; read-out: Percent inhibition SETVI

Structure (SMILES)	inhibition at 100 g/ha
C=CCC(F)(F)S(=O)(=O)c1ncn(C(=O)N(CC)CC)n1 [Example 17, 1-(N,N-diethylcarbamoyl)-3-[(1,1-difluoro-3-butenyl)sulfonyl]-1,2,4-triazole]	70%

Same assay, conditions: Setaria viridis; weed, PPI application, 300 g/ha; read-out: Percent inhibition SETVI

Structure (SMILES)	inhibition at 300 g/ha
C=CCC(F)(F)S(=O)(=O)c1ncn(C(=O)N(CC)CC)n1 [Example 17, 1-(N,N-diethylcarbamoyl)-3-[(1,1-difluoro-3-butenyl)sulfonyl]-1,2,4-triazole]	100%

Same assay, conditions: Setaria viridis; weed, PPI application, 900 g/ha; read-out: Percent inhibition SETVI

Structure (SMILES)	inhibition at 900 g/ha
C=CCC(F)(F)S(=O)(=O)c1ncn(C(=O)N(CC)CC)n1 [Example 17, 1-(N,N-diethylcarbamoyl)-3-[(1,1-difluoro-3-butenyl)sulfonyl]-1,2,4-triazole]	100%

Same assay, conditions: pre-plant incorporated; lowest tested rate with 80% or greater inhibition; about 14 days

Structure (SMILES)	PPI activity GR80, SETVI
C=CCC(F)(F)S(=O)(=O)c1ncn(C(=O)N(CC)CC)n1 [Example 17, 1-(N,N-diethylcarbamoyl)-3-[(1,1-difluoro-3-butenyl)sulfonyl]-1,2,4-triazole]	30 g/ha
